Test results taken from patent US7198906B2, “Drug sensitivity measuring method” (priority 2000, dated 2007).

Columns and labels:
[1] = tested on: E. coli sensitive strain JM109; assay: Drug susceptibility measurement with dissolved oxygen electrode, sensitive strain; assay type: cell-based
Text: (§1) In step SP1, measurement of currents (output signals) is started by applying predetermined voltages to electrodes for measuring dissolved oxygen concentration. The electrodes are provided within a first compartment or well, second compartment or well, and third compartment or well, respectively. The first compartment or well is a compartment or well containing only physiological salt solution. The second compartment or well is a compartment or well containing physiological salt solution and drug solution of a first predetermined concentration. The third compartment or well is a compartment or well containing physiological salt solution and drug solution of a second predetermined concentration. […] In step SP4, current from each electrode for measuring dissolved oxygen concentration is measured at a second time interval for a third time period (for example, at every 1 second for 60 seconds). In step SP5, each time is obtained based upon each of the measured currents at which the maximum current is obtained. […] In step SP7, drug susceptibility is detected based upon the variation condition of each current value during the fourth time period. […]
(§2) Next, the electrode for measuring the dissolved oxygen concentration is mounted to each compartment or well. […] After the measurement time of 360 seconds has passed, the measured currents are stored and the measured currents are analyzed. […]

[2] = tested on: E. coli resistant strain 5W (ABPC plasmid introduction); assay: Drug susceptibility measurement with dissolved oxygen electrode, resistant strain; assay type: cell-based
Text: as §1, §2

Compound: CC1(C)S[C@@H]2[C@H](NC(=O)[C@H](N)c3ccccc3)C(=O)N2[C@H]1C(=O)O [ABPC, Ampicillin]
- variation characteristic of measured current (dissolved oxygen) following passage in time, curve versus control ([1]; JM109+ABPC, control JM109 as reference, FIGS. 2 and 3): more gentle than curves each corresponding to the control and the resistant strain
- inclination of measured current for 10 seconds from the peak timing, supposing the inclination corresponding to the control to be 100% ([1]; sensitive strain JM109 + ABPC solution 5.3 μg/ml, entire amount 0.25 ml and 0.5 ml, control JM109 without drug = 100%): 79.0–85.4%
- variation characteristic of measured current (dissolved oxygen) following passage in time, curve versus control ([2]; 5W+ABPC, control JM109 as reference, FIGS. 2 and 3): equal to or more steep than the curve corresponding to the control
- inclination of measured current for 10 seconds from the peak timing, supposing the inclination corresponding to the control to be 100% ([2]; resistant strain 5W + ABPC solution 5.3 μg/ml, entire amount 0.25 ml and 0.5 ml, control JM109 without drug = 100%): 96.1–122.9%
